According to patent US12180485B2, “Repressible control of gene expression” (TRUSTEES OF BOSTON UNIVERSITY, priority 2020, dated 2024):

How the values were obtained:
CID domains = settings: reversibility of the ligand-induced dimerization / action; cited from earlier work
mammalian systems = settings: toxicity in mammalian systems at working concentration; cited from earlier work
mCherry = mCherry knockdown by inducible split RfxCas13d (ON switch) in transfected HEK 293 FT cells, flow cytometry; assay type: cell-based

## CC/C(=C(\c1ccccc1)c1ccc(OCCN(C)C)cc1)c1ccccc1 [Tamoxifen]
CID domains
  Reversibility: hardly
Mammalian systems
  Toxicity*: no

## CO[C@H]1C[C@@H]2CC[C@@H](C)[C@@](O)(O2)C(=O)C(=O)N2CCCC[C@H]2C(=O)O[C@H]([C@H](C)C[C@@H]2CC[C@@H](O)[C@H](OC)C2)CC(=O)[C@H](C)/C=C(\C)[C@@H](O)[C@@H](OC)C(=O)[C@H](C)C[C@H](C)/C=C/C=C/C=C/1C [Rapamycin]
Mammalian systems
  Toxicity*: no

B1: 507/508: RfxCas13d split pair at 507/508 fused to CID or dNS3/ANR domains (protein)
chain 1: IEKKKSFAKGMGVKSTLVSGSKVYMTTFAEGSDARLEKIVEGDSIRSVNEGEAFSAEMADKNAGYKIGNAKFSHPKGYAVVANNPLYTGPVQQDMLGLKETLEKRYFGESADGNDNICIQVIHNILDIEKILAEYITNAAYAVNNISGLDKDIIGFGKFSTVYTYDEFKDPEHHRAAFNNNDKLINAIKAQYDEFDNFLDNPRLGYFGQAFFSKEGRNYIINYGNECYDILALLSGLRHWVVHNNEEESRISRTWLYNLDKNLDNEYISTLNYLYDRITNELTNSFSKNSAANVNYIAETLGINPAEFAEQYFRFSIMKEQKNLGFNITKLREVMLDRKDMSEIRKNHKVFDSIRTKVYTMMDFVIYRYYIEEDAKVAAANKSLPDNEKSLSEKDIFVINLRGSFNDDQKDALYYDEANRIWRKLENIMHNIKEFRGNKTREYKKKDAPRLPRILPAGRDVSAFSKLMYALTMFLDGKEINDLLTTLINKFDNIQSFLKVMPLIGVN
chain 2: AKFVEEYAFFKDSAKIADELRLIKSFARMGEPIADARRAMYIDAIRILGTNLSYDELKALADTFSLDENGNKLKKGKHGMRNFIINNVISNKRFHYLIRYGDPAHLHEIAKNEAVVKFVLGRIADIQKKQGQNGKNQIDRYYETCIGKDKGKSVSEKVDALTKIITGMNYDQFDKKRSVIEDTGRENAEREKFKKIISLYLTVIYHILKNIVNINARYVIGFHCVERDAQLYKEKGYDINLKKLEEKGFSSVTKLCAGIDETAPDKRKDVEKEMAERAKESIDSLESANPKLYANYIKYSDEKKAEEFTRQINREKAKTALNAYLRNTKWNVIIREDLLRIDNKTCTLFRNKAVHLEVARYVHAYINDIAEVNSYFQLYHYIMQRIIMNERYEKSSGKVSEYFDAVNDEKKYNDRLLKLLCVPFGYCIPRFKNLSIEALFDRNEAAKFDKEKKKVSGNS
modifications: fused CID or dNS3/ANR domains
notes: RfxCas13d split pair at 507/508 fused to CID or dNS3/ANR domains
mCherry; GIB: N ss-GAI/GID-ss C, ABA: N ss-PYL/ABI-ss C
  performance of reversed CID orientation versus original orientation: stronger inducibility and weaker leakiness
mCherry; split pairs coupled with CID domains, with inducer
  knockdown across the various CID systems: consistently strong drug-induced knockdown

B2: 384/385: RfxCas13d split pair at 384/385 (protein)
chain 1: IEKKKSFAKGMGVKSTLVSGSKVYMTTFAEGSDARLEKIVEGDSIRSVNEGEAFSAEMADKNAGYKIGNAKFSHPKGYAVVANNPLYTGPVQQDMLGLKETLEKRYFGESADGNDNICIQVIHNILDIEKILAEYITNAAYAVNNISGLDKDIIGFGKFSTVYTYDEFKDPEHHRAAFNNNDKLINAIKAQYDEFDNFLDNPRLGYFGQAFFSKEGRNYIINYGNECYDILALLSGLRHWVVHNNEEESRISRTWLYNLDKNLDNEYISTLNYLYDRITNELTNSFSKNSAANVNYIAETLGINPAEFAEQYFRFSIMKEQKNLGFNITKLREVMLDRKDMSEIRKNHKVFDSIRTKVYTMMDFVIYRYYIEEDAKVAAANKSL
chain 2: PDNEKSLSEKDIFVINLRGSFNDDQKDALYYDEANRIWRKLENIMHNIKEFRGNKTREYKKKDAPRLPRILPAGRDVSAFSKLMYALTMFLDGKEINDLLTTLINKFDNIQSFLKVMPLIGVNAKFVEEYAFFKDSAKIADELRLIKSFARMGEPIADARRAMYIDAIRILGTNLSYDELKALADTFSLDENGNKLKKGKHGMRNFIINNVISNKRFHYLIRYGDPAHLHEIAKNEAVVKFVLGRIADIQKKQGQNGKNQIDRYYETCIGKDKGKSVSEKVDALTKIITGMNYDQFDKKRSVIEDTGRENAEREKFKKIISLYLTVIYHILKNIVNINARYVIGFHCVERDAQLYKEKGYDINLKKLEEKGFSSVTKLCAGIDETAPDKRKDVEKEMAERAKESIDSLESANPKLYANYIKYSDEKKAEEFTRQINREKAKTALNAYLRNTKWNVIIREDLLRIDNKTCTLFRNKAVHLEVARYVHAYINDIAEVNSYFQLYHYIMQRIIMNERYEKSSGKVSEYFDAVNDEKKYNDRLLKLLCVPFGYCIPRFKNLSIEALFDRNEAAKFDKEKKKVSGNS
mCherry; mCherry
  knockdown with assistance of gRNA: relatively efficient knockdown
